Laboratory results taken from PubChem BioAssay AID248 (DTP/NCI, 2004).
Several values for one entry are separate records, joined by “and”; a condition that tells them apart may be missing. Identical values can stand only once. Inconclusive results and toxic doses are left out. No stated cut-off is given here; in the data, active means T/C of 150% or more; inactive means T/C below 125%.

Test system: L1210 leukemia ip in BDF1 mice, survival T/C
Experiment: NCI In Vivo Anticancer Drug Screen. Data for tumor model L1210 Leukemia (intraperitoneal) in B6D2F1 (BDF1) mice
Details: endpoint: mean survival time, higher = longer survival
Outline: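 Value reflects the ratio of survival in compound-treated mice to survival in vehicle-treated controls, with both groups carrying the same transplanted tumor.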

[1] = dose: 100.0 mg/kg/injection, schedule: Q01DX001 (ip), vehicle: carboxymethylcellulose (CMC)
[2] = dose: 200.0 mg/kg/injection, schedule: Q01DX001 (ip), vehicle: carboxymethylcellulose (CMC)
[3] = dose: 400.0 mg/kg/injection, schedule: Q01DX001 (ip), vehicle: carboxymethylcellulose (CMC)
[4] = dose: 100.0 mg/kg/injection, schedule: Q01DX001 (ip), vehicle: saline
[5] = dose: 200.0 mg/kg/injection, schedule: Q01DX001 (ip), vehicle: saline
[6] = dose: 100.0 mg/kg/injection, schedule: Q01DX009 (ip), vehicle: Klucel (hydroxypropylcellulose) (HPC)
[7] = dose: 6.25 mg/kg/injection, schedule: Q04DX003 (ip), vehicle: saline
[8] = dose: 12.5 mg/kg/injection, schedule: Q04DX003 (ip), vehicle: saline
[9] = dose: 25.0 mg/kg/injection, schedule: Q04DX003 (ip), vehicle: saline
[10] = dose: 400.0 mg/kg/injection, schedule: Q01DX001 (ip), vehicle: saline

Measured: T/C

CC(CC(C#N)(c1ccccc1)c1ccccc1)OS(C)(=O)=O (stereo unspecified)
inactive: [1] 94 % of control | [2] 94 % of control | [3] 94 % of control

CCN(CC)Cc1ccc(C2=NCCO2)cc1
inactive: dose: 50.0 mg/kg/injection, schedule: Q01DX001 (ip), vehicle: saline 91 % of control | [4] 94 % of control | [5] 98 % of control

O=C(NO)C(=O)NCc1ccccc1
inactive: [1] 90 % of control | [2] 96 % of control | [3] 96 % of control

Nc1ccc(OC(=O)Nc2ccc(O)cc2)cc1
inactive: dose: 53.0 mg/kg/injection, schedule: Q01DX Z (ip), vehicle: other 94 % of control | dose: 80.0 mg/kg/injection, schedule: Q01DX Z (ip), vehicle: other 97 % of control | dose: 80.0 mg/kg/injection, schedule: Q01DX Z (ip), vehicle: saline 89 % of control | dose: 120.0 mg/kg/injection, schedule: Q01DX Z (ip), vehicle: other 105 % of control | dose: 180.0 mg/kg/injection, schedule: Q01DX Z (ip), vehicle: other 100 % of control | dose: 180.0 mg/kg/injection, schedule: Q01DX Z (ip), vehicle: saline 92 % of control | dose: 270.0 mg/kg/injection, schedule: Q01DX Z (ip), vehicle: other 102 % of control | dose: 270.0 mg/kg/injection, schedule: Q01DX Z (ip), vehicle: saline 93 % of control | dose: 404.0 mg/kg/injection, schedule: Q01DX Z (ip), vehicle: other 100 % of control | dose: 405.0 mg/kg/injection, schedule: Q01DX Z (ip), vehicle: saline 92 % of control

CCCCCCCCCCCCCCCCCC(CCCCCCCCCCCCCCCC)CCCCCCCCCCCCCCCC
inactive: [1] 96 % of control | [2] 102 % of control | [3] 91 % of control

Cc1ccc(C)c(NC(=O)Oc2ccc(Cl)cc2Cl)c1
inactive: dose: 25.0 mg/kg/injection, schedule: Q01DX009 (ip), vehicle: Klucel (hydroxypropylcellulose) (HPC) 87 % of control | dose: 50.0 mg/kg/injection, schedule: Q01DX009 (ip), vehicle: Klucel (hydroxypropylcellulose) (HPC) 100 % of control | [6] 110 % of control | dose: 100.0 mg/kg/injection, schedule: Q04DX003 (ip), vehicle: Klucel (hydroxypropylcellulose) (HPC) 90 % of control | dose: 200.0 mg/kg/injection, schedule: Q04DX003 (ip), vehicle: Klucel (hydroxypropylcellulose) (HPC) 94 % of control | dose: 400.0 mg/kg/injection, schedule: Q04DX003 (ip), vehicle: Klucel (hydroxypropylcellulose) (HPC) 106 % of control

CN(C)c1ccc(/C=N/O)cc1
inactive: dose: 100.0 mg/kg/injection, schedule: Q04DX002 (ip), vehicle: saline 103 % of control | dose: 200.0 mg/kg/injection, schedule: Q04DX002 (ip), vehicle: saline 95 % of control | dose: 400.0 mg/kg/injection, schedule: Q04DX002 (ip), vehicle: saline 95 % of control

N=C(N)c1ccc(-n2nc3ccc(C(=N)N)cc3n2)cc1
inactive: [7] 100 % of control and 103 % of control | [8] 100 % of control | [9] 100 % of control

CC(C)(C)C(=O)CN
inactive: [4] 116 % of control | dose: 100.0 mg/kg/injection, schedule: Q01DX009 (ip), vehicle: saline 101 % of control and 104 % of control | dose: 100.0 mg/kg/injection, schedule: Q04DX003 (ip), vehicle: saline 101 % of control | [5] 119 % of control | dose: 200.0 mg/kg/injection, schedule: Q01DX009 (ip), vehicle: saline 93 % of control and 97 % of control | dose: 200.0 mg/kg/injection, schedule: Q04DX003 (ip), vehicle: saline 109 % of control | [10] 122 % of control | dose: 400.0 mg/kg/injection, schedule: Q01DX009 (ip), vehicle: saline 101 % of control | dose: 400.0 mg/kg/injection, schedule: Q04DX003 (ip), vehicle: saline 93 % of control

CCOC(=O)Nc1cc(N)c([N+](=O)[O-])c(NC(c2ccccc2)c2ccccc2)n1
inactive: [1] 95 % of control | [2] 87 % of control | [3] 92 % of control

O=C(Nc1cc([N+](=O)[O-])ccc1O)Nc1cc(C(F)(F)F)ccc1Cl
inactive: [1] 90 % of control | dose: 100.0 mg/kg/injection, schedule: Q01DX009 (ip), vehicle: carboxymethylcellulose (CMC) 95 % of control and 103 % of control | dose: 100.0 mg/kg/injection, schedule: Q04DX002 (ip), vehicle: carboxymethylcellulose (CMC) 97 % of control and 101 % of control | dose: 100.0 mg/kg/injection, schedule: Q04DX003 (ip), vehicle: carboxymethylcellulose (CMC) 94 % of control | [2] 93 % of control | dose: 200.0 mg/kg/injection, schedule: Q01DX009 (ip), vehicle: carboxymethylcellulose (CMC) 93 % of control and 95 % of control | dose: 200.0 mg/kg/injection, schedule: Q04DX002 (ip), vehicle: carboxymethylcellulose (CMC) 93 % of control and 97 % of control | dose: 200.0 mg/kg/injection, schedule: Q04DX003 (ip), vehicle: carboxymethylcellulose (CMC) 92 % of control | [3] 92 % of control | dose: 400.0 mg/kg/injection, schedule: Q01DX009 (ip), vehicle: carboxymethylcellulose (CMC) 92 % of control and 93 % of control | dose: 400.0 mg/kg/injection, schedule: Q04DX002 (ip), vehicle: carboxymethylcellulose (CMC) 92 % of control and 90 % of control | dose: 400.0 mg/kg/injection, schedule: Q04DX003 (ip), vehicle: carboxymethylcellulose (CMC) 97 % of control

CCCCSCCSC(=N)N
inactive: dose: 25.0 mg/kg/injection, schedule: Q04DX002 (ip), vehicle: saline with Tween-80 100 % of control | dose: 50.0 mg/kg/injection, schedule: Q04DX002 (ip), vehicle: saline with Tween-80 103 % of control | dose: 100.0 mg/kg/injection, schedule: Q04DX002 (ip), vehicle: saline with Tween-80 103 % of control

C=CS(=O)(=O)c1ccc(N)cc1
inactive: [6] 103 % of control | dose: 200.0 mg/kg/injection, schedule: Q01DX009 (ip), vehicle: Klucel (hydroxypropylcellulose) (HPC) 95 % of control

COC(=O)NS(=O)(=O)C1=Cc2cccc3cccc1c23
inactive: dose: 100.0 mg/kg/injection, schedule: Q04DX002 (ip), vehicle: Klucel (hydroxypropylcellulose) (HPC) 103 % of control | dose: 200.0 mg/kg/injection, schedule: Q04DX002 (ip), vehicle: Klucel (hydroxypropylcellulose) (HPC) 100 % of control | dose: 400.0 mg/kg/injection, schedule: Q04DX002 (ip), vehicle: Klucel (hydroxypropylcellulose) (HPC) 113 % of control

CCCCCC(CCCCC)c1ccccn1
inactive: [4] 94 % of control | [5] 103 % of control | [10] 100 % of control

COc1cc(C(C)O)cc(OC)c1OC (stereo unspecified)
inactive: dose: 100.0 mg/kg/injection, schedule: Q01DX009 (ip), vehicle: saline with Tween-80 101 % of control | dose: 100.0 mg/kg/injection, schedule: Q04DX003 (ip), vehicle: saline with Tween-80 101 % of control | dose: 200.0 mg/kg/injection, schedule: Q01DX009 (ip), vehicle: saline with Tween-80 98 % of control | dose: 200.0 mg/kg/injection, schedule: Q04DX003 (ip), vehicle: saline with Tween-80 100 % of control | dose: 400.0 mg/kg/injection, schedule: Q01DX009 (ip), vehicle: saline with Tween-80 93 % of control | dose: 400.0 mg/kg/injection, schedule: Q04DX003 (ip), vehicle: saline with Tween-80 99 % of control

O=C1NC(c2ccccc2)C(=O)N1CCN(CCCl)CCCl (stereo unspecified)
inactive: dose: 3.12 mg/kg/injection, schedule: Q01DX009 (ip), vehicle: saline 102 % of control | dose: 3.12 mg/kg/injection, schedule: Q04DX003 (ip), vehicle: saline 98 % of control | dose: 6.25 mg/kg/injection, schedule: Q01DX009 (ip), vehicle: saline 97 % of control | [7] 106 % of control | dose: 12.5 mg/kg/injection, schedule: Q01DX009 (ip), vehicle: saline 100 % of control | [8] 103 % of control | [9] 115 % of control

COc1c(Br)cc(C(=O)C(C)C)c(O)c1C
inactive: dose: 75.0 mg/kg/injection, schedule: Q04DX003 (ip), vehicle: Klucel (hydroxypropylcellulose) (HPC) 95 % of control | dose: 150.0 mg/kg/injection, schedule: Q04DX003 (ip), vehicle: Klucel (hydroxypropylcellulose) (HPC) 103 % of control | dose: 300.0 mg/kg/injection, schedule: Q04DX003 (ip), vehicle: Klucel (hydroxypropylcellulose) (HPC) 95 % of control

O=S(=O)(CS(=O)(=O)Oc1ccccc1)Oc1ccccc1
inactive: [1] 93 % of control | [2] 102 % of control | [3] 93 % of control

O=CC1CO1 (stereo unspecified)
inactive: dose: 29.0 mg/kg/injection, schedule: Q01DX Z (ip), vehicle: steriod suspending solution 97 % of control | dose: 44.0 mg/kg/injection, schedule: Q01DX Z (ip), vehicle: steriod suspending solution 99 % of control | dose: 66.0 mg/kg/injection, schedule: Q01DX Z (ip), vehicle: steriod suspending solution 106 % of control
